The source of these data is PubChem BioAssay (NCI).

Values joined by “and” are separate entries in the source; they are usually repeats but may differ in a detail not shown here. Equal values may be shown once.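 Briefly, cells in 96-well plates were exposed to five compound concentrations for 48 h, and endpoints were estimated by linear interpolation. The concentration for 50% growth inhibition is given as GI50. TGI: total growth inhibition.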

Holding throughout (assay): NCI anticancer screen, dose series, 48 h
The test system of experiment [1] is NCI-H522 lung.
For experiment [2], the system named is SK-MEL-2 melanoma.
The subject of experiment [3] is U251 CNS.
Experiment [4] has as its system MALME-3M melanoma.
Experiment [5] deals with SK-MEL-5 melanoma.
Experiment [6] has as its system OVCAR-8 ovarian.
Experiment [7] has as its system MDA-MB-231 breast.
Experiment [8] concerns DU-145 prostate.
Experiment [9] deals with 786-0 renal.
The test system of experiment [10] is ACHN renal.

Consider `Cc1cn2c(/C=C3\C(=O)Nc4ccc(O)cc43)c(-c3ccc(Cl)cc3)nc2s1`, for which the GI50 in experiment [1] is 11.3 µM; in experiment [2], 21.9 µM; in experiment [3], 14.3 µM; in [4], 14.3 µM; in [5], 10.1 µM; in [6], 18.4 µM. The GI50 in experiment [7] was 14.5 µM; in experiment [8], 10.3 µM; in [9], 16.6 µM; in experiment [10] it was 17.8 µM. For the same compound, the TGI in experiment [1] is 57.9 µM; in experiment [2], 70.5 µM; in experiment [3], 28.9 µM; in experiment [4], 42 µM; in experiment [5], 25.2 µM; in [6], greater than 100 µM. Besides, the TGI is 54.2 µM in [7], 25.2 µM in [8], 32.7 µM in experiment [9] and greater than 100 µM in experiment [10].

Regarding `O=C(c1c(F)ccc(NS(=O)(=O)N2CC[C@@H](F)C2)c1F)c1c[nH]c2ncc(-c3cnc(C4CC4)nc3)cc12`, the GI50 is 3.05 µM and 4.34 µM in [1]; 2.17 µM and 3.25 µM in experiment [2]; 5.94 µM and 7.53 µM in [3]; 0.00378 µM and < 0.01 µM in [4]; 1.01 µM and 0.651 µM in experiment [5]; 5.22 µM and 7.06 µM in experiment [6]. Also, the GI50 in [7] is 2.88 µM and 3.47 µM; in [8] it was 6.03 µM and 5.37 µM; in experiment [9] it was 5.46 µM and 6.36 µM; in experiment [10], 4.91 µM and 4.34 µM. For the same compound, the TGI in [1] is > 10 µM and 22.7 µM; in [2], > 8.34 µM and 15.7 µM; in experiment [3], > 10 µM and 39.3 µM; in experiment [4], less than 0.043 µM; in [5] it was > 10 µM and 16.7 µM; in experiment [6], > 10 µM and 55.3 µM. In addition, the TGI is > 10 µM and 46.8 µM in [7]; greater than 76.8 µM in [8]; > 10 µM and 56.7 µM in experiment [9]; greater than 65.9 µM in [10].

Consider `Cc1ccc(/C=C/c2c(C(=O)/C=C/c3ccc(C(F)(F)F)cc3)c(C)nc3ccccc23)cc1`, for which the GI50 in [1] was 1.33 µM; in [2] it was 1.83 µM; in experiment [3] it was 1.47 µM; in experiment [4], 1.7 µM; in experiment [5] it was 1.54 µM; in experiment [6] it was 1.88 µM. In addition, the GI50 in experiment [7] is 1.65 µM; in experiment [8] it was 1.56 µM; in experiment [9], 1.7 µM; in experiment [10] it was 1.4 µM. The TGI in [1] was determined as 4.35 µM; in experiment [2], 3.92 µM; in [3], 3.13 µM; in experiment [4] it was 3.08 µM; in experiment [5], 2.87 µM; in experiment [6], 6.43 µM. For the same compound, the TGI in experiment [7] was 3.43 µM; in [8], 2.9 µM; in [9], 3.18 µM; in experiment [10] it was 2.7 µM.

As for `CC(C)=CCc1cc(O)cc2c1OC(C=C(C)C)C1=C2C(=O)C2=C(NCCS2(=O)=O)C1=O` (stereo not given), the GI50 in [1] is 2.64 µM; in experiment [2] it was 2.85 µM; in experiment [3], 2.79 µM; in experiment [4], 0.159 µM; in [5], 0.751 µM; in experiment [6], 3.24 µM. Also, the GI50 in experiment [7] was 0.527 µM; in experiment [8], 2.18 µM; in experiment [9], 2.93 µM; in experiment [10], 3.18 µM. Besides, the TGI in experiment [1] was determined as 7.41 µM; in experiment [2], 7.13 µM; in experiment [3] it was 5.25 µM; in [4], 0.834 µM; in [5] it was 2.88 µM; in experiment [6], 8.71 µM. Also, the TGI amounted to 5.09 µM in [7], 4.31 µM in [8], 7.11 µM in experiment [9] and 10.6 µM in experiment [10].

Consider `NS(=O)(=O)c1ccc(N(/C=C/C(=O)C(F)(F)F)CC(=O)c2ccc(Cl)cc2)cc1`, for which the GI50 was 24.3 µM in [1]; 38.1 µM in experiment [2]; 33 µM in experiment [3]; 24.9 µM in experiment [4]; 38.9 µM in experiment [5]; 43.4 µM in experiment [6]. For the same compound, the GI50 was 36.3 µM in experiment [7], 93.3 µM in experiment [8], 45.2 µM in experiment [9] and 30.4 µM in experiment [10]. Further, the TGI in [1] is 72.2 µM; in [2], greater than 100 µM; in [3], greater than 100 µM; in experiment [4], 92.6 µM; in experiment [5], greater than 100 µM; in experiment [6], greater than 100 µM. Moreover, the TGI is greater than 100 µM in [7], greater than 100 µM in experiment [8], greater than 100 µM in [9] and 91.4 µM in experiment [10].

Regarding `COc1ccc2[nH]cc(-c3nc(-c4c[nH]c5ncccc45)cs3)c2c1`, the GI50 was 8.02 µM in experiment [1]; 8.36 µM in experiment [2]; 3.83 µM in experiment [3]; 4.95 µM in [4]; 2.87 µM in experiment [5]; 4.7 µM in experiment [6]. For the same compound, the GI50 in experiment [7] was 2.21 µM; in experiment [8] it was 5.69 µM; in experiment [9], 1.97 µM; in experiment [10] it was 2.85 µM. Further, the TGI in [1], in experiment [2], in experiment [3], in experiment [4], in experiment [5] and in experiment [6] was greater than 100 µM each time. The TGI in experiment [7], in [8], in experiment [9] and in experiment [10] was greater than 100 µM each time.

In the case of `C[C@H]1Oc2cc(cnc2N)-c2c(nn(C)c2C#N)CN(C)C(=O)c2ccc(F)cc21`, the GI50 in [1] is 57 µM; in [2], 78 µM; in [3], greater than 100 µM; in [4] it was 18.8 µM; in [5], greater than 74.8 µM; in experiment [6] it was 98 µM. The GI50 in [7] is 18.1 µM; in [8], 26.6 µM; in experiment [9], 36.2 µM; in [10], 22.8 µM. Moreover, the TGI in [1], in experiment [2], in [3], in experiment [4], in [5] and in experiment [6] was greater than 100 µM in each case. The TGI in experiment [7], in experiment [8], in experiment [9] and in experiment [10] was greater than 100 µM each time.
